In patent publication US20250109165A1, “CYCLOPHILIN INHIBITORS AND USES THEREOF” (The Broad Institute, Inc., priority 2022, published 2025):

Experiments:
cyclophilins = assay: Prolyl-isomerase inhibition screen on cyclophilins and cyclophilin mutants; assay type: biochemical, human
Procedure: (§1) IC50 values were calculated to be the value at which 50% inhibition was achieved on each compound's non-linear regression fitted curve.

CypD [1] = assay: Chymotrypsin coupled prolyl-isomerase assay; assay type: biochemical, human
Procedure: as §1

CypD K118E = target: T1, CypD K118E (Homo sapiens, UniProt P30405, K118E); assay: Chymotrypsin coupled prolyl-isomerase assay; assay type: biochemical; conditions: CypD K118E mutant; read-out: IC50^CypDK118E
T1 construct: made in house; host or cells: E. coli BL21(DE3)
Procedure: as §1

CypA = target: T2, CypA (Homo sapiens, UniProt P62937); assay: Chymotrypsin coupled prolyl-isomerase assay; assay type: biochemical; conditions: wild-type CypA
T2 construct: PPIA (UniProtKB Entry P62937: res 1-165); made in house; host or cells: E. coli BL21(DE3)
Procedure: as §1

CypD K118A = target: T3, CypD K118A (Homo sapiens, UniProt P30405, K118A); assay: Chymotrypsin coupled prolyl-isomerase assay; assay type: biochemical; conditions: CypD K118A mutant; read-out: IC50^CypDK118A
T3 construct: made in house; host or cells: E. coli BL21(DE3)
Procedure: as §1

CypB = target: T4, CypB (Homo sapiens, UniProt P23284); assay: Chymotrypsin coupled prolyl-isomerase assay; assay type: biochemical; conditions: wild-type CypB
T4 construct: PPIB (UniProtKB Entry P23284: res 34-216); His6 tag with TEV site (seen as […]- and […]- forms) (N); made in house; host or cells: E. coli BL21(DE3)
Procedure: as §1

CypD [2] = target: T5, CypD (Homo sapiens, UniProt P30405); assay: Chymotrypsin coupled prolyl-isomerase assay; assay type: biochemical; conditions: for IC50: wild-type CypD
T5 construct: PPIF (UniProtKB Entry P30405: res 45-207); made in house; host or cells: E. coli BL21(DE3)
Procedure: as §1

CypD S123E = target: T6, CypD S123E (Homo sapiens, UniProt P30405, S123E); assay: Chymotrypsin coupled prolyl-isomerase assay; assay type: biochemical; conditions: CypD S123E gatekeeper mutant; read-out: IC50^CypDS123E
T6 construct: made in house; host or cells: E. coli BL21(DE3)
Procedure: as §1

CypA E81S/K82R = target: T7, CypA E81S/K82R (Homo sapiens, UniProt P62937, E81S/K82R); assay: Chymotrypsin coupled prolyl-isomerase assay; assay type: biochemical; conditions: CypA E81S/K82R gatekeeper mutant; read-out: IC50^CypAE81S/K82R
T7 construct: Lane 12-SNA-CypA E81S/K82R (1-165); His6 tag (N, cleaved yes); made in house; host or cells: E. coli BL21(DE3)
Procedure: as §1

CypB E121S = target: T8, CypB E121S (Homo sapiens, UniProt P23284, E121S); assay: Chymotrypsin coupled prolyl-isomerase assay; assay type: biochemical; conditions: CypB E121S gatekeeper mutant; read-out: IC50^CypBE121S
T8 construct: Lane 14-SNA-CypB E121S (34-216); His6 tag (N, cleaved yes); made in house; host or cells: E. coli BL21(DE3)
Procedure: as §1

CypD R124A = target: T9, CypD R124A (Homo sapiens, UniProt P30405, R124A); assay: Chymotrypsin coupled prolyl-isomerase assay; assay type: biochemical; conditions: CypD R124A mutant; read-out: IC50^CypDR124A
T9 construct: made in house; host or cells: E. coli BL21(DE3)
Procedure: as §1

CypD K118E/R124A = target: T10, CypD K118E/R124A (Homo sapiens, UniProt P30405, K118E/R124A); assay: Chymotrypsin coupled prolyl-isomerase assay; assay type: biochemical
T10 construct: made in house; host or cells: E. coli BL21(DE3)
Procedure: as §1

T10 sequence (P30405 45-207 K118E/R124A): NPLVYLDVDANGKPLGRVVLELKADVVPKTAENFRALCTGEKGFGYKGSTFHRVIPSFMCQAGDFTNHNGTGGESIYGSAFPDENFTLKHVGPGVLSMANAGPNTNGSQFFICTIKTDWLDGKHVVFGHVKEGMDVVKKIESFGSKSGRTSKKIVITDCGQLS
T5 sequence (P30405 45-207): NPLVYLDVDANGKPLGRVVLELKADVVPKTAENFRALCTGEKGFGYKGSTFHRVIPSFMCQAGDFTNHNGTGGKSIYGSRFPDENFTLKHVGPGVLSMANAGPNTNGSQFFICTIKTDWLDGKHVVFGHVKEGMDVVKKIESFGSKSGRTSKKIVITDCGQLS
T1 sequence (P30405 45-207 K118E): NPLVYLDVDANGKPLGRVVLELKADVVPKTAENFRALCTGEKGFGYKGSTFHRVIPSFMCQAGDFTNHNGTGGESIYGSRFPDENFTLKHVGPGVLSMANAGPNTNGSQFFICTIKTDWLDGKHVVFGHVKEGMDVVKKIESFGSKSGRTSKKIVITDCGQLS
T3 sequence (P30405 45-207 K118A): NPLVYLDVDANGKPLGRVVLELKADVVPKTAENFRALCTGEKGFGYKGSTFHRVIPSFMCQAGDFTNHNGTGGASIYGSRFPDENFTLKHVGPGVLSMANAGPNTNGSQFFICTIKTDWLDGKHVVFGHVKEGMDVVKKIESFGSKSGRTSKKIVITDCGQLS
T6 sequence (P30405 45-207 S123E): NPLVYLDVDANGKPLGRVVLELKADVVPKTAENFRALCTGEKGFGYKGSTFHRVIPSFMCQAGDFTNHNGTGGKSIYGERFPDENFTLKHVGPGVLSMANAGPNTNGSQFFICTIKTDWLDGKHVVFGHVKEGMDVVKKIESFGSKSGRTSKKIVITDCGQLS
T2 sequence (P62937 whole entry): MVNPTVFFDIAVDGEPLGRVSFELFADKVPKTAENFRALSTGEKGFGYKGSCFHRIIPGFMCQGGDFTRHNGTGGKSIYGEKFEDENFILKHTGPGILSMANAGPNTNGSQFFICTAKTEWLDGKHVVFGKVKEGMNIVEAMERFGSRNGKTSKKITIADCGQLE
T7 sequence (P62937 whole entry E81S/K82R): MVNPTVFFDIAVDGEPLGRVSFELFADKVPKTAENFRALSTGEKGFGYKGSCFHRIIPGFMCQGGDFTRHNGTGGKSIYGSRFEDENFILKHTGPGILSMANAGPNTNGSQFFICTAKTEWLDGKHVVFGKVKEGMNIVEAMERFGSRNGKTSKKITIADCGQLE
T4 sequence (P23284 34-216): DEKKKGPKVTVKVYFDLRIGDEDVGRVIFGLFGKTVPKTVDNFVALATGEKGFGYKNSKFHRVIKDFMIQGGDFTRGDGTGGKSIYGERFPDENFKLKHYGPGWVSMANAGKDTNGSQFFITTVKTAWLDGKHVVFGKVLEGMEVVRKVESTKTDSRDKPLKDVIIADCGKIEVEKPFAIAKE
T8 sequence (P23284 34-216 E121S): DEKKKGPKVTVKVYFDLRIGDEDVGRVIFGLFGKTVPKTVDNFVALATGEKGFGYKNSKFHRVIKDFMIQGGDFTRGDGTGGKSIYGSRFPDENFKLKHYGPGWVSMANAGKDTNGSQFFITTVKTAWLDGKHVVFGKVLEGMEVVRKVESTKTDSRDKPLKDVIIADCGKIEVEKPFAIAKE
T9 sequence (P30405 45-207 R124A): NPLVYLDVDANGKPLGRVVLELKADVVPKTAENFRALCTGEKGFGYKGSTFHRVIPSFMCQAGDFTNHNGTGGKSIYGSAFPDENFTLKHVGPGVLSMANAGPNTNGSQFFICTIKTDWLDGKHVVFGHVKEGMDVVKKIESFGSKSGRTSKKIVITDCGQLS

| SMILES | cyclophilin selectivity profile (in words) (cyclophilins) | potency on cyclophilin mutants compared to wild-type (in words) (cyclophilins; mutants as named at the place) | selectivity for CypD over CypA (CypD [1]; CypD versus wild-type CypA) [fold] | IC50 (CypD K118E) [nM] | IC50 (CypA) [nM] | IC50 (CypD K118A) [nM] | IC50 (CypB) [nM] | IC50 (CypD [2]) [nM] | IC50 (CypD S123E) [nM] | IC50 (CypA E81S/K82R) [nM] | IC50 (CypB E121S) [nM] | inhibition of cyclophilins tested (in words) (cyclophilins) | IC50 (CypD R124A) [nM] | inhibition potency improvement compared to wild-type CypD (CypD [1]; CypD mutants K118E and R124A) | reduction in CypD potency (CypD [2]; on inserting an amine with a net positive charge) | preference for CypD K118E/R124A over the nearest cyclophilin, PPWD1 (CypD K118E/R124A) | improvement compared to wild-type CypD (CypD K118E/R124A; CypD K118E/R124A) [fold] | IC50 (CypD K118E/R124A; CypD double mutant, read-out: IC50^CypDK11E/R124A) [nM] |
| --- | --- | --- | --- | --- | --- | --- | --- | --- | --- | --- | --- | --- | --- | --- | --- | --- | --- | --- |
| NCCOCCNC(=O)[C@@H]1CCNC(=O)/C=C/C(=O)N2CCC[C@](Cc3ccccc3)(C2)C(=O)N[C@@H](Cc2ccc(-c3ccc(C(CC(=O)O)CC(=O)O)cc3)cc2)C(=O)NCc2ccccc2CC(=O)N1 [Compound B53] | high potency and selectivity for CypD | little to no ablation of potency | 100 | 4000 | 3400 | 900 | 1100 | 57 | 800 | 180 | 50 | – | – | – | – | – | – | – |
| NCCCc1ccc(-c2ccc(C[C@@H]3NC(=O)[C@]4(Cc5ccccc5)CCCN(C4)C(=O)/C=C/C(=O)NCC[C@@H](C(=O)NCCOCCN)NC(=O)Cc4ccccc4CNC3=O)cc2)cc1 [Compound B32] | – | – | – | 1100 | – | – | – | 6000 | – | – | – | overall poor potency for each cyclophilin | 700 | 5- to 6 fold | > 1,000 fold | at least 13 fold | 100 | 60 |
